Measurements: patent US5962502A, “Polyamidic acid derivatives with antigastrin activity, a method for their preparation, and their pharmaceutical use” (priority 1993, dated 1999)
pIC50: −log10 of the molar value.

The compounds below were run against T1, central CCK-B receptor (Cavia porcellus, UniProt H0VZC5) (assay: Inhibition of the binding of [3-H][N-methyl-N-leucine]CCK-8 to guinea-pig cortical membranes). Details: binding, guinea-pig cortex.
T1 construct: Cerebral cortices of male white guinea-pigs were thus used; from tissue; host or cells: cerebral cortex membranes of male white guinea-pigs
T1 sequence (H0VZC5 1-426): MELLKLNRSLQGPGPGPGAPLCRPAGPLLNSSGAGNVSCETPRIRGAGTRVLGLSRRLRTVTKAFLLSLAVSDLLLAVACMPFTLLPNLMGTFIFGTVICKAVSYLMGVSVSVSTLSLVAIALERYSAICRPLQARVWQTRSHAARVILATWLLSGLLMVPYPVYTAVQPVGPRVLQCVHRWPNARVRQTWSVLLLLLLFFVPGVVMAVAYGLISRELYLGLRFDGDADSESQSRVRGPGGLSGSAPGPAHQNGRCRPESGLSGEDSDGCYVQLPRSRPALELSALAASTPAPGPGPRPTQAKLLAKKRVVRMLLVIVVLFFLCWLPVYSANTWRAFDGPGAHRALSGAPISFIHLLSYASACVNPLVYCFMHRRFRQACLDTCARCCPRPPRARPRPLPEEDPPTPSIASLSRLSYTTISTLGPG
Method: The ability of the compounds of the invention to interact with the central CCK-B receptor was evaluated with the use of non-sulphated [3-H] […] 225 (3) (1990), 1278-1286].
Cerebral cortices of male white guinea-pigs were thus used, according to the method mentioned above, so as to obtain a membrane content corresponding to about 300 mcg of proteins/ml. The membranes were incubated together with the radioactive tracer and the compounds under test for 150 minutes at 25° C. After the supernatant had been discarded, the radioactivity associated with the pellet was determined with a liquid scintillator. The specific binding was determined as the difference between the binding in the absence and in the presence of 5.10^-6 M CCK-8.
For `CC1(C)CCC(NC(=O)[C@H](CCC(=O)O)NC(=O)CC[C@@H](NC(=O)c2cc(Cl)cc(Cl)c2)C(=O)N2CCC3(CCCC3)CC2)CC1` [Compound 34], the “times more active than the corresponding diastereoisomer at the carbon atom (**)” value was “about twice”.

Same assay, conditions: guinea-pig cortical membranes
For `O=C(CC[C@@H](NC(=O)c1cc(Cl)cc(Cl)c1)C(=O)N1CCC2(CCCC2)CC1)NC(Cc1c[nH]c2ccccc12)C(=O)O` (stereo partly drawn) [Compound 19], the “inhibition of the binding of [N-methyl-N-leucine]CCK-8, result in words” value was “potent inhibitors”.

Same assay, conditions: guinea-pig cortical membranes, 150 minutes at 25° C.
In the case of `CN(CC(=O)O)C(=O)CC[C@@H](NC(=O)c1cc(Cl)cc(Cl)c1)C(=O)N1CCC2(CCCC2)CC1` [Compound 2], the pIC50 was 6.21.
Work on `CC(C)CC(NC(=O)CC[C@@H](NC(=O)c1cc(Cl)cc(Cl)c1)C(=O)N1CCC2(CCCC2)CC1)C(=O)O` (stereo partly drawn) [Compound 6] yielded a pIC50 of 6.42.
Compound `O=C(CC[C@@H](NC(=O)c1cc(Cl)cc(Cl)c1)C(=O)N1CCC2(CCCC2)CC1)NC(Cc1ccccc1)C(=O)O` (stereo partly drawn) [Compound 8] has a pIC50 of 6.70.
With `CN(C(=O)CC[C@@H](NC(=O)c1cc(Cl)cc(Cl)c1)C(=O)N1CCC2(CCCC2)CC1)C(Cc1ccccc1)C(=O)O` (stereo partly drawn) [Compound 11] the pIC50 was 6.66.
`O=C(CC[C@@H](NC(=O)c1cc(Cl)cc(Cl)c1)C(=O)N1CCC2(CCCC2)CC1)NC(CCc1ccccc1)C(=O)O` (stereo partly drawn) [Compound 16] showed a pIC50 of 6.52.
`O=C(CC[C@@H](NC(=O)c1cc(Cl)cc(Cl)c1)C(=O)N1CCC2(CCCC2)CC1)NC(Cc1ccc(O)cc1)C(=O)O` (stereo partly drawn) [Compound 18] gave a pIC50 of 6.49.
Compound `O=C(CC[C@@H](NC(=O)c1cc(Cl)cc(Cl)c1)C(=O)N1CCC2(CCCC2)CC1)NC(Cc1c[nH]c2ccccc12)C(=O)O` (stereo partly drawn) [Compound 19] has a pIC50 of 7.30.
In the case of `CN(C(=O)CC[C@@H](NC(=O)c1cc(Cl)cc(Cl)c1)C(=O)N1CCC2(CCCC2)CC1)[C@@H](Cc1c[nH]c2ccccc12)C(=O)O` [Compound 22], the pIC50 was 6.42.
For `CC1(C)CCC(NC(=O)[C@H](CCC(=O)O)NC(=O)CC[C@@H](NC(=O)c2cc(Cl)cc(Cl)c2)C(=O)N2CCC3(CCCC3)CC2)CC1` [Compound 34], the pIC50 was 6.14.

Each compound was assayed against T2, gastrin receptors or type-B cholecystokinin (CCK-B) receptors (Oryctolagus cuniculus, UniProt P46627) (assay: Inhibition of the gastrin-induced increase of cytosolic calcium in rabbit gastric mucous-membrane cells (Fura 2)). Details: binding values taken from Table 3.
T2 construct: Rabbit gastric mucous-membrane cells were prepared by conventional techniques; endogenous in cells; host or cells: freshly isolated rabbit gastric mucosal cells, enriched by elutriation to about 70% parietal cells
T2 sequence (P46627 1-452): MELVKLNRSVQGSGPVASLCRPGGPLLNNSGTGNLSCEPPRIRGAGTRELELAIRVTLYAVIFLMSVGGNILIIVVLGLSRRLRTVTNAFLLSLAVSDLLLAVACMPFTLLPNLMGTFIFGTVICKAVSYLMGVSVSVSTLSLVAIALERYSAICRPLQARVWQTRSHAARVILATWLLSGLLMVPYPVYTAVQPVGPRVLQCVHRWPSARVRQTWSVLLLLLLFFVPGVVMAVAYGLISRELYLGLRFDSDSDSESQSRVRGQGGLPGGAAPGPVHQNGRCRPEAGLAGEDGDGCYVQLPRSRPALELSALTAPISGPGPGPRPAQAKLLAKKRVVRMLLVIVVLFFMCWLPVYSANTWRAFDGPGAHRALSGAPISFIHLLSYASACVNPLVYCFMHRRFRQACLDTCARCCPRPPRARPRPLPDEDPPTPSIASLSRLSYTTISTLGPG
Assay type: cell-based
Text: The parietal cells of the gastric mucous membrane are responsible for the secretion of HCl. They have specific membrane receptors which can be activated by gastrin and which have been defined as gastrin receptors or type-B cholecystokinin (CCK-B) receptors. Since it has been observed that the activation of the CCK-B receptors by gastrin leads to an increase in the cytosolic levels of calcium ions, a technique involving the measurement of the increase in intracellular calcium induced by gastrin in the presence and in the absence of the compounds of the invention was used as an index of the antigastrin activity of the compounds. Rabbit gastric mucous-membrane cells were prepared by conventional techniques with the use of collagenase and pronase as digestive enzymes. The cellular preparation obtained by the enzymatic digestion was composed of parietal cells, zymogen cells and mucous-membrane cells. […] The cells were then washed and resuspended in a saline solution buffered with HEPES containing, in mM: […] Each measurement was carried out on cells in suspension (0.8×10^6 /ml) at a thermostatically-controlled temperature of 37° C. and with constant magnetic stirring. The fluorescence was recorded with the use of a spectrofluorometer. The operative wavelengths were 340/380 nm for excitation and 505 nm for emission. […] Biol. Chem. 260 (1985), 3440]. […] The results thus obtained for some compounds of the invention are given in Table 4, which also gives an index derived from the ratio between the peripheral antigastrin activity just described and the displacement activity found in the test on binding to the guinea-pig cortex receptors described above.
For `CN(CC(=O)O)C(=O)CC[C@@H](NC(=O)c1cc(Cl)cc(Cl)c1)C(=O)N1CCC2(CCCC2)CC1` [Compound 2], the “Ratio IC50 Binding cortex / IC50 (gastric mucous cells)” value (“Ratio IC50 Binding cortex / IC50” below) was 0.7.
With `CC(C)CC(NC(=O)CC[C@@H](NC(=O)c1cc(Cl)cc(Cl)c1)C(=O)N1CCC2(CCCC2)CC1)C(=O)O` (stereo partly drawn) [Compound 6] the “Ratio IC50 Binding cortex / IC50” value was 7.6.
In the case of `O=C(CC[C@@H](NC(=O)c1cc(Cl)cc(Cl)c1)C(=O)N1CCC2(CCCC2)CC1)NC(Cc1ccccc1)C(=O)O` (stereo partly drawn) [Compound 8], the “Ratio IC50 Binding cortex / IC50” value was 3.3.
For `CN(C(=O)CC[C@@H](NC(=O)c1cc(Cl)cc(Cl)c1)C(=O)N1CCC2(CCCC2)CC1)C(Cc1ccccc1)C(=O)O` (stereo partly drawn) [Compound 11], the “Ratio IC50 Binding cortex / IC50” value was 3.1.
In the case of `O=C(CC[C@@H](NC(=O)c1cc(Cl)cc(Cl)c1)C(=O)N1CCC2(CCCC2)CC1)NC(CCc1ccccc1)C(=O)O` (stereo partly drawn) [Compound 16], the “Ratio IC50 Binding cortex / IC50” value was 2.0.
In the case of `O=C(CC[C@@H](NC(=O)c1cc(Cl)cc(Cl)c1)C(=O)N1CCC2(CCCC2)CC1)NC(Cc1ccc(O)cc1)C(=O)O` (stereo partly drawn) [Compound 18], the “Ratio IC50 Binding cortex / IC50” value was 1.6.
In the case of `O=C(CC[C@@H](NC(=O)c1cc(Cl)cc(Cl)c1)C(=O)N1CCC2(CCCC2)CC1)NC(Cc1c[nH]c2ccccc12)C(=O)O` (stereo partly drawn) [Compound 19], the “Ratio IC50 Binding cortex / IC50” value was 5.0.
In the case of `CN(C(=O)CC[C@@H](NC(=O)c1cc(Cl)cc(Cl)c1)C(=O)N1CCC2(CCCC2)CC1)[C@@H](Cc1c[nH]c2ccccc12)C(=O)O` [Compound 22], the “Ratio IC50 Binding cortex / IC50” value was 7.6.
With `CC1(C)CCC(NC(=O)[C@H](CCC(=O)O)NC(=O)CC[C@@H](NC(=O)c2cc(Cl)cc(Cl)c2)C(=O)N2CCC3(CCCC3)CC2)CC1` [Compound 34] the “Ratio IC50 Binding cortex / IC50” value was 10.4.

Same assay, conditions: rabbit gastric mucous cells
`O=C(CC[C@@H](NC(=O)c1cc(Cl)cc(Cl)c1)C(=O)N1CCC2(CCCC2)CC1)NC(Cc1c[nH]c2ccccc12)C(=O)O` (stereo partly drawn) [Compound 19] was tested, and the “IC50 order of magnitude, peripheral antigastrin activity” value was “nanomolar order of magnitude”.

Same assay, conditions: rabbit gastric mucous cells enriched in parietal cells, gastrin 5×10^-8
In the case of `CN(CC(=O)O)C(=O)CC[C@@H](NC(=O)c1cc(Cl)cc(Cl)c1)C(=O)N1CCC2(CCCC2)CC1` [Compound 2], the “IC50, inhibition of the increase of cytosolic calcium” value was 1500 nM.
In the case of `CC(C)CC(NC(=O)CC[C@@H](NC(=O)c1cc(Cl)cc(Cl)c1)C(=O)N1CCC2(CCCC2)CC1)C(=O)O` (stereo partly drawn) [Compound 6], the “IC50, inhibition of the increase of cytosolic calcium” value was 50 nM.
In the case of `O=C(CC[C@@H](NC(=O)c1cc(Cl)cc(Cl)c1)C(=O)N1CCC2(CCCC2)CC1)NC(Cc1ccccc1)C(=O)O` (stereo partly drawn) [Compound 8], the “IC50, inhibition of the increase of cytosolic calcium” value was 60 nM.
`CN(C(=O)CC[C@@H](NC(=O)c1cc(Cl)cc(Cl)c1)C(=O)N1CCC2(CCCC2)CC1)C(Cc1ccccc1)C(=O)O` (stereo partly drawn) [Compound 11] was tested, and the “IC50, inhibition of the increase of cytosolic calcium” value was 70 nM.
For `O=C(CC[C@@H](NC(=O)c1cc(Cl)cc(Cl)c1)C(=O)N1CCC2(CCCC2)CC1)NC(CCc1ccccc1)C(=O)O` (stereo partly drawn) [Compound 16], the “IC50, inhibition of the increase of cytosolic calcium” value was 150 nM.
With `O=C(CC[C@@H](NC(=O)c1cc(Cl)cc(Cl)c1)C(=O)N1CCC2(CCCC2)CC1)NC(Cc1ccc(O)cc1)C(=O)O` (stereo partly drawn) [Compound 18] the “IC50, inhibition of the increase of cytosolic calcium” value was 200 nM.
For `O=C(CC[C@@H](NC(=O)c1cc(Cl)cc(Cl)c1)C(=O)N1CCC2(CCCC2)CC1)NC(Cc1c[nH]c2ccccc12)C(=O)O` (stereo partly drawn) [Compound 19], the “IC50, inhibition of the increase of cytosolic calcium” value was 10 nM.
With `CN(C(=O)CC[C@@H](NC(=O)c1cc(Cl)cc(Cl)c1)C(=O)N1CCC2(CCCC2)CC1)[C@@H](Cc1c[nH]c2ccccc12)C(=O)O` [Compound 22] the “IC50, inhibition of the increase of cytosolic calcium” value was 50 nM.
For `CC1(C)CCC(NC(=O)[C@H](CCC(=O)O)NC(=O)CC[C@@H](NC(=O)c2cc(Cl)cc(Cl)c2)C(=O)N2CCC3(CCCC3)CC2)CC1` [Compound 34], the “IC50, inhibition of the increase of cytosolic calcium” value was 70 nM.
